Target: T1, human full-length MKNK1 (Homo sapiens, UniProt Q9BUB5, T385D)
T1 construct: purchased Carna Biosciences 02-145; host or cells: insect cells, baculovirus expression system
Assay: MKNK1 kinase high ATP assay (TR-FRET)
Assay type: biochemical
Details: high ATP (2 mM), 15 min preincubation with enzyme, GST-MKNK1 (T344D)
Method in brief: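 GST-tagged full-length human MKNK1 (aa 1-424, T344D), baculovirus-expressed, preincubated 15 min with compound, then reacted 30 min at 22 °C with 2 mM ATP and 0.06 µM biotinylated peptide (final).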

T1 sequence (Q9BUB5 1-424 isoform Q9BUB5-2 T344D): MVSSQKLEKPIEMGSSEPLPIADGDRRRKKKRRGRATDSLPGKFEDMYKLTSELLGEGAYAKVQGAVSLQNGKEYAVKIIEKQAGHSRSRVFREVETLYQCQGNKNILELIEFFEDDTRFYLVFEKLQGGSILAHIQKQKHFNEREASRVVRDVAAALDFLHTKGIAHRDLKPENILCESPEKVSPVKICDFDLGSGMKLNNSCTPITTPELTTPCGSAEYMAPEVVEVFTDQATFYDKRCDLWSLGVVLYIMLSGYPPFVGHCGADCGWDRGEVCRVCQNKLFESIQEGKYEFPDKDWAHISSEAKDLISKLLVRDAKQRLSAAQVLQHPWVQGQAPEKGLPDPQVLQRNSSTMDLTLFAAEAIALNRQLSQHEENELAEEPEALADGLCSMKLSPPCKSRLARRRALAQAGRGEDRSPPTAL

| Structure (SMILES) | IC50 [µM] |
| --- | --- |
| COc1ccc(C(F)(F)F)cc1Nc1ncnc2[nH]c3c(c12)CCCC3 [Example 119] | ≥ 20 |
| COCC1(OC)CCc2[nH]c3ncnc(Nc4ccc(F)cc4OC(C)C)c3c2C1 (racemic) [Example 137] | 0.773 |
| O=S1(=O)CCc2[nH]c3ncnc(Nc4ccc5[nH]ncc5c4)c3c2C1 [Example 83, N-(1H-Indazol-5-yl)-5,7,8,9-tetrahydrothiopyrano[3′,4′:4,5]pyrrolo[2,3-d]pyrimidin-4-amine 6,6-dioxide] | 0.062 |
| COc1ccc(F)cc1Nc1ncnc2[nH]c3c(c12)CC(C(=O)N1CCN(C)CC1)CC3 (racemic) [Example 196, (RS)-{4-[(5-Fluoro-2-methoxyphenyl)amino]-6,7,8,9-tetrahydro-5H-pyrimido[4,5-b]indol-6-yl}(4-methylpiperazin-1-yl)methanone] | 0.115 |
| O=C(O)C1CCc2[nH]c3ncnc(Nc4ccc(Cl)c(Cl)c4)c3c2C1 (racemic) [Example 233, (RS)-4-[(3,4-Dichlorophenyl)amino]-6,7,8,9-tetrahydro-5H-pyrimido[4,5-b]indole-6-carboxylic acid] | 0.149 |
| COc1ccc(F)cc1Nc1ncnc2[nH]c3c(c12)CC(C(=O)NCc1ccccc1)CC3 (racemic) [Example 200, (RS)—N-Benzyl-4-[(5-fluoro-2-methoxyphenyl)amino]-6,7,8,9-tetrahydro-5H-pyrimido[4,5-b]indole-6-carboxamide] | 0.1 |
| CCCOc1ccc(F)cc1Nc1ncnc2[nH]c3c(c12)CC(C(=O)NCCCS(C)(=O)=O)CC3 (racemic) [Example 160, (RS)-4-[(5-Fluoro-2-propoxyphenyl)amino]-N-[3-(methylsulfonyl)propyl]-6,7,8,9-tetrahydro-5H-pyrimido[4,5-b]indole-6-carboxamide] | 0.037 |
| CS(=O)(=O)CCCNC(=O)C1CCc2[nH]c3ncnc(Nc4ccccc4OC4CCOCC4)c3c2C1 (racemic) [Example 79, (RS)—N-[3-(Methylsulfonyl)propyl]-4-{[2-(tetrahydro-2H-pyran-4-yloxy)phenyl]amino}-6,7,8,9-tetrahydro-5H-pyrimido[4,5-b]indole-6-carboxamide] | 0.058 |
| COc1ccc(F)cc1Nc1ncnc2[nH]c3c(c12)CC(C(=O)Nc1ccccc1)CC3 (racemic) [Example 199, (RS)-4-[(5-Fluoro-2-methoxyphenyl)amino]-N-phenyl-6,7,8,9-tetrahydro-5H-pyrimido[4,5-b]indole-6-carboxamide] | ≥ 20 |
| O=C(O)C1CCc2[nH]c3ncnc(Nc4ccccc4OC4CCCC4)c3c2C1 (racemic) [Example 180, (RS)-4-{[2-(Cyclopentyloxy)phenyl]amino}-6,7,8,9-tetrahydro-5H-pyrimido[4,5-b]indole-6-carboxylic acid] | 2.89 |
| CC(C)Oc1cc(F)ccc1Nc1ncnc2[nH]c3c(c12)CC(F)(F)CC3 [Example 9, 6,6-Difluoro-N-(4-fluoro-2-isopropoxyphenyl)-6,7,8,9-tetrahydro-5H-pyrimido[4,5-b]indol-4-amine] | 0.085 |
| CC(C)NC(=O)C1CCc2[nH]c3ncnc(Nc4ccc(F)cc4OC(C)C)c3c2C1 (racemic) [Example 223, (RS)-4-{[4-Fluoro-2-(propan-2-yloxy)phenyl]amino}-N-(propan-2-yl)-6,7,8,9-tetrahydro-5H-pyrimido[4,5-b]indole-6-carboxamide] | 0.053 |
| CS(=O)(=O)CCCNC(=O)C1CCc2[nH]c3ncnc(Nc4ccc5c(c4)OCC(=O)N5)c3c2C1 (racemic) [Example 51, (RS)—N-[3-(Methylsulfonyl)propyl]-4-[(3-oxo-3,4-dihydro-2H-1,4-benzoxazin-7-yl)amino]-6,7,8,9-tetrahydro-5H-pyrimido[4,5-b]indole-6-carboxamide] | 0.37 |
| O=C(O)C1CCc2[nH]c3ncnc(Nc4ccc5[nH]ncc5c4)c3c2C1 (racemic) [Example 6, (RS)-4-(1H-Indazol-5-ylamino)-6,7,8,9-tetrahydro-5H-pyrimido[4,5-b]indole-6-carboxylic acid] | 0.089 |
| c1ccc2c(c1)CCN2c1ncnc2[nH]c3c(c12)CCCC3 [Example 120] | 8.35 |
| COc1cc(F)c(F)cc1Nc1ncnc2[nH]c3c(c12)CC(C(=O)NCCCS(C)(=O)=O)CC3 (racemic) [Example 161, (RS)-4-[(4,5-Difluoro-2-methoxyphenyl)amino]-N-[3-(methylsulfonyl)propyl]-6,7,8,9-tetrahydro-5H-pyrimido[4,5-b]indole-6-carboxamide] | 0.035 |
| CC(C)Oc1ccc(Cl)cc1Nc1ncnc2[nH]c3c(c12)CC(C(=O)NCCCS(C)(=O)=O)CC3 (racemic) [Example 150, (RS)-4-{[5-Chloro-2-(propan-2-yloxy)phenyl]amino}-N-[3-(methylsulfonyl)propyl]-6,7,8,9-tetrahydro-5H-pyrimido[4,5-b]indole-6-carboxamide] | 0.012 |
| CCOC(=O)C1CCc2[nH]c3ncnc(Nc4ccc5[nH]ncc5c4)c3c2C1 (racemic) [Example 5, (RS)-Ethyl 4-(1H-indazol-5-ylamino)-6,7,8,9-tetrahydro-5H-pyrimido[4,5-b]indole-6-carboxylate] | 0.018 |
| CCNC(=O)C1CCc2[nH]c3ncnc(Nc4ccccc4OC4CCCC4)c3c2C1 (racemic) [Example 190, (RS)-4-{[2-(Cyclopentyloxy)phenyl]amino}-N-ethyl-6,7,8,9-tetrahydro-5H-pyrimido[4,5-b]indole-6-carboxamide] | 0.088 |
| COCC1(OC)CCc2[nH]c3ncnc(Nc4cc5cn[nH]c5cc4F)c3c2C1 (racemic) [Example 139] | 0.197 |
| CC(C)Oc1ccc(Cl)cc1Nc1ncnc2[nH]c3c(c12)CCCC3 [Example 124] | 1.74 |
| O=c1[nH]c2ccc(Nc3ncnc4[nH]c5c(c34)CCCC5)cc2s1 [Example 117] | 0.058 |

— patent US20150133426A1, “SUBSTITUTED PYRROLOPYRIMIDINES” (BAYER PHARMA AKTIENGESELLSCHAFT, priority 2012, published 2015)
